Consider 4 compounds from EP2881399B1, “New thiosemicarbazone chelates having anticancer activity” (priority 2013, dated 2015).

Common to all, as to assay type: cell-based
In experiment [1] the test system is ECV304 (endothelial) cells. The experiment is described as follows: cytotoxicity test (MTT), IC50 after 72 hours incubation. Conditions: incubated for 72 hours. As to the method: (§1) IC50 (the concentration inhibiting the proliferation of 50% of cells) of these 4 new compounds presented is identified by cytotoxicity tests in K562 (leukaemia) and ECV304 (endothelial) cells. Subsequently, it is studied to understand pathway through which the death of the cells is occurred (the mechanism of action) after the cells are treated for 72 hours at these concentrations. The apoptosis is analysed with immununocytochemical methods and flow cytometry and DNA fragmentation is analysed with diphenylamine reaction. […] DNA fragmentation is found high in all experiment groups (70-80%). These rates are compatible with IC50 obtained with MTT test because IC50 is the dose which kills the 50% of the cells. […] Furthermore, this rate is compatible with the percentage of total dead cells (52-64 %) which is the addition of apoptotic and necrotic cells obtained by annexin/PI dyeing.

A further experiment has as its system K562 (leukaemia) cells. The description is as above. As to the method: as §1
The next experiment relates to ECV304. In words: DNA fragmentation by diphenylamine reaction. Conditions: ECV304, end of 72 hours at identified IC50 concentrations. As to the method: (§2) IC50 (the concentration inhibiting the proliferation of 50% of cells) of these 4 new compounds presented is identified by cytotoxicity tests in K562 (leukaemia) and ECV304 (endothelial) cells. Subsequently, it is studied to understand pathway through which the death of the cells is occurred (the mechanism of action) after the cells are treated for 72 hours at these concentrations. The apoptosis is analysed with immununocytochemical methods and flow cytometry and DNA fragmentation is analysed with diphenylamine reaction. […] The inventors also analysed DNA fragmentation rates occurred in cells at the end of 72 hours at identified IC50 concentrations.

Another experiment concerns K562. The experiment is described as follows: DNA fragmentation by diphenylamine reaction. Conditions: K562, end of 72 hours at identified IC50 concentrations. As to the method: as §2
In the next experiment the test system is K562 cells. The experiment is described as follows: flow cytometry with Annexin V and PI dyeing (apoptosis / necrosis). As to conditions: K562, 72 hours at IC50 concentration; for Living cell (%) / Necrotic cell (%) / Post- apoptotic cell (%) / Pre- apoptotic cell (%): Annexin V and PI; for Dead cell (%): addition of apoptotic and necrotic cells. As to the method: The Figure 2 gives the flow cytometry images of K562 cells, undergoing pre-apoptosis, post-apoptosis and necrosis, which are dyed with Annexin V and PI, after being incubated with thiosemicarbazones of the invention for 72 hours. Herein the images are as follows; A) Control, B) Compound I (0.6µg/ml), C) Compound II (0.6µg/ml), D) […], and E) Compound IV (0.1µg/ml). […] The inventors have characterized cells treated with compounds I-IV in the conditions of Figure 2 in order to better observe the mechanism of action of thiosemicarbazones presented in the current invention.
(A flow cytometer gives signals particle by particle.)

The mark [2] stands for this setting: K562, as listed in Table 3, rounded, the concentration applied in the flow cytometry.
The mark [3] stands for this setting: K562 cells, incubated for 72 hours.

Regarding `COc1ccc2c(c1)[O][Ni][O]c1c(O)cccc1C=NN=C(SC)N=C2` [Compound I, N(1)-3-hydroxysalicylidene-N(4)-4-methoxysalicylideneisothio-semicarbazidato Nickel (II)], in experiment [1], the IC50 is reported as >5 microgram/ml. The IC50 in the experiment on K562 (leukaemia) cells (setting [2]) is 0.6 µg/mL. Further, in the experiment on K562 (leukaemia) cells (setting [3]), the IC50 came out at 0.61 microgram/ml. This compound displayed a DNA fragmentation % with ECV304 of 20±0.5%. The DNA fragmentation % in the experiment on K562 was determined as 80±1.4%. Further, in the experiment with K562 cells, the “Apoptosis / Necrosis ratio” value was determined as 13.56, the “Living cell (%)” value worked out at 35.18%, the “Necrotic cell (%)” value was found to be 2.57% and the “Post- apoptotic cell (%)” value came to 27.39%. Also, in the experiment with K562 cells, the “Pre- apoptotic cell (%)” value worked out at 34.85% and the “Dead cell (%)” value is reported as 64.82%.

As for `COc1ccc2c(c1)[O][Fe]([Cl])[O]c1cc(O)ccc1C=NN=C(SC)N=C2` [Compound IV, Monochloro-N(1)-4-hydroxysalicylidene-N(4)-4-methoxy-salicylideneisothiosemicarbazidato Iron (III)], the IC50 in experiment [1] was >5 microgram/ml. The IC50 in the experiment with K562 (leukaemia) cells (setting [2]) worked out at 0.1 µg/mL. In the experiment on K562 (leukaemia) cells (setting [3]), the IC50 was 0.1 microgram/ml. The same compound returned a DNA fragmentation % in the experiment with ECV304 of 28±2.4%. Moreover, the DNA fragmentation % in the experiment with K562 is 84±1.4%. In the experiment on K562 cells, the “Apoptosis / Necrosis ratio” value amounted to 17.77, the “Living cell (%)” value is on record as 41.07%, the “Necrotic cell (%)” value was found to be 2.11% and the “Post- apoptotic cell (%)” value was 19.32%. In addition, in the experiment with K562 cells, the “Pre- apoptotic cell (%)” value is on record as 37.5% and the “Dead cell (%)” value is on record as 58.93%.

For `COc1ccc2c(c1)[O][Ni][O]c1cc(O)ccc1C=NN=C(SC)N=C2` [III, N(1)-4-hydroxysalicylidene-N(4)-4-methoxysalicylideneisothio-semicarbazidato Nickel (II)], in experiment [1], the IC50 is reported as >5 microgram/ml. In addition, the IC50 in the experiment with K562 (leukaemia) cells (setting [2]) amounted to 0.6 µg/mL. In the experiment with K562 (leukaemia) cells (setting [3]), this compound had an IC50 of 0.65 microgram/ml. Besides, the DNA fragmentation % in the experiment with ECV304 stood at 22±1.7%. Besides, the DNA fragmentation % in the experiment on K562 amounted to 75±1.4%. Further, in the experiment on K562 cells, the “Apoptosis / Necrosis ratio” value stood at 11.82, the “Living cell (%)” value turned out to be 36.11%, the “Necrotic cell (%)” value is recorded as 3.17% and the “Post- apoptotic cell (%)” value is recorded as 23.23%. In the experiment on K562 cells, the “Pre- apoptotic cell (%)” value was 37.5% and the “Dead cell (%)” value worked out at 63.89%.

As to “Monochloro-N(1)-3--hydroxysalicylidene-N(4)-4-methox salicylideneisothiosemicarbazidato Iron (III) [Compound II]”, the IC50 in experiment [1] was >5 microgram/ml. In addition, in the experiment on K562 (leukaemia) cells (setting [2]), the IC50 amounted to 0.6 µg/mL. The IC50 with K562 (leukaemia) cells (setting [3]) worked out at 0.62 microgram/ml. In the experiment on ECV304, the DNA fragmentation % worked out at 18±2.1%. For the same compound, the DNA fragmentation % with K562 came out at 79±0.7%. In addition, in the experiment with K562 cells, the “Apoptosis / Necrosis ratio” value was found to be 9.80, the “Living cell (%)” value amounted to 47.4%, the “Necrotic cell (%)” value came out at 3.15% and the “Post- apoptotic cell (%)” value was 18.54%. In the experiment with K562 cells, the “Pre- apoptotic cell (%)” value was found to be 30.9% and the “Dead cell (%)” value was 52.6%.
